# In patent publication EP3723745B1, “PHENOXY ACIDS FOR THE TREATMENT OF NEUROMUSCULAR DISORDERS” (NMD Pharma A/S, priority 2017, dated 2019):
# Experiments:
# female Lewis rats = test: Measurement of in situ muscle contractile characteristics (isometric hindlimb force, cisatracurium block); assay type: in vivo, rat; conditions: for average increase in twitch peaks: 12 Hz; for average increase in twitch peaks / average increase in tetanic force: cisatracurium infusion; for average increase in tetanic force: 80 Hz; for restore force to muscles in vivo: muscles partially inhibited by a neuromuscular blocker, summary in words
# Method: Isometric hindlimb force was measured in 12-week old female Lewis rats in the presence and absence of compound.
# Rats were placed under anesthesia with isoflurane (2-4%), intubated and subsequently connected to a micro ventilator (Microvent 1, Hallowell EMC, US). Two stimulation electrodes were inserted through the skin to stimulate the sciatic nerve. A small incision was made proximal to the ankle, to expose the Achilles tendon, which was tied by cotton string, and connected to a force transducer (Fort250, World Precision Instruments) with adjustable position (Vernier control). The Achilles tendon was then cut distal to the attached cotton string. The rat was placed on a heated pad, and to prevent movement artefacts from contraction of the ankle dorsiflexors, the foot was fixated by tape on a footplate.
# Muscle contractile properties were assessed by applying an electrical current (under supramaximal voltage conditions) to the nerve and recording the force generated by the muscle. The muscle was stretched until maximal force was obtained, when assessed by 2 Hz stimulation. Isometric force was measured every 30 seconds at 12 Hz (Twitch), 10 pulses, and at every 5 minutes at 80 Hz (Tetanic) for 1 second (80 pulses). This stimulation pattern was employed throughout the experiment, expect in few cases where 80 Hz stimulation was replaced by 12 Hz (10 pulses). […] When the level of neuromuscular inhibition was stable, the test article was injected i.v. at the chosen concentration. The effect of test article was assessed on its ability to increase force generated from the stimulation pattern applied. The effect was assessed in the ability to increase force per se (tetanic, 80 Hz, stimulation), and the ratio between individual twitch peaks (12 Hz stimulation). The effect was monitored for at least 1 hour after injection of test article. In addition, the time from injection of test article to maximal effect on force (both twitch and tetanic) was noted and the time for the effect to disappear (return to baseline), if possible. When appropriate the infusion of neuromuscular blocking agent was ceased, with the stimulation pattern continued, and the return of force to control levels was monitored. Animals were sacrificed by cervical dislocation while still fully sedated.
# soleus muscles = test: Measurement of force in an in vitro model: isolated rat nerve-muscle preparation with tubocurarine; conditions: Rattus norvegicus, 40 min; percentage of initial force restored after 40 mins with 50 µM test compound; tubocurarine (115 nM) for 90 mins; read-out: Point increase
# Method: Recovery of force is quantified as the percentage of the force prior to tubocurarine that is recovered by the compound.
# The current invention relates to compounds that inhibit CIC-1 ion channels and increase muscle excitability and thereby improve muscle function in clinical conditions where muscle activation is failing. Such conditions result in loss of contractile function of skeletal muscle, weakness and excessive fatigue. In this series of experiments the compounds were tested for their ability to restore contractile function of isolated rat muscle when the neuromuscular transmission had been compromised akin to neuromuscular disorders.
# Experimentally, soleus muscles from 4-5 wk old rats were isolated with the motor nerve remaining attached. The nerve-muscle preparations were mounted in experimental setups that enabled electrical stimulation of the motor nerve. Stimulation of the motor nerve led to activation of the muscle fibres and ensuing force production that was recorded.
# After mounting the nerve-muscle preparation in the experimental setup, the contractile function of the muscle was initially assessed under the control conditions (Figure 2A). […] The experimental condition mimics the failing neuromuscular transmission in a range of neuromuscular disorders. After addition of tubocurarine the contractile force declined over the next 90 mins to 10-50 % of the control force. 50 µM of the test compound was then added and the contractile force recovered despite the continued presence of tubocurarine. To quantify the ability of the compound to restore force the percentage of the initial force that was restored was determined after 40 mins of compound exposure (Figure 2B) and the point increase is reported in Table 3. Table 3: Percentage increase of initial force that was restored using compounds of the invention
# CIC-1 channels = target: T1, CIC-1 channels (Rattus norvegicus, UniProt P35524); test: Electrophysiological measurement of compound inhibition of CIC-1 in rat muscle (Gm, three micro-electrodes technique); assay type: cell-based; conditions: reduction of Gm in fibres of whole rat soleus muscles, approx. 30°C; n = number of experiments
# T1 construct: from tissue; host or cells: intact soleus muscle of 12-14-week old Wistar rats
# T1 sequence (P35524 1-994): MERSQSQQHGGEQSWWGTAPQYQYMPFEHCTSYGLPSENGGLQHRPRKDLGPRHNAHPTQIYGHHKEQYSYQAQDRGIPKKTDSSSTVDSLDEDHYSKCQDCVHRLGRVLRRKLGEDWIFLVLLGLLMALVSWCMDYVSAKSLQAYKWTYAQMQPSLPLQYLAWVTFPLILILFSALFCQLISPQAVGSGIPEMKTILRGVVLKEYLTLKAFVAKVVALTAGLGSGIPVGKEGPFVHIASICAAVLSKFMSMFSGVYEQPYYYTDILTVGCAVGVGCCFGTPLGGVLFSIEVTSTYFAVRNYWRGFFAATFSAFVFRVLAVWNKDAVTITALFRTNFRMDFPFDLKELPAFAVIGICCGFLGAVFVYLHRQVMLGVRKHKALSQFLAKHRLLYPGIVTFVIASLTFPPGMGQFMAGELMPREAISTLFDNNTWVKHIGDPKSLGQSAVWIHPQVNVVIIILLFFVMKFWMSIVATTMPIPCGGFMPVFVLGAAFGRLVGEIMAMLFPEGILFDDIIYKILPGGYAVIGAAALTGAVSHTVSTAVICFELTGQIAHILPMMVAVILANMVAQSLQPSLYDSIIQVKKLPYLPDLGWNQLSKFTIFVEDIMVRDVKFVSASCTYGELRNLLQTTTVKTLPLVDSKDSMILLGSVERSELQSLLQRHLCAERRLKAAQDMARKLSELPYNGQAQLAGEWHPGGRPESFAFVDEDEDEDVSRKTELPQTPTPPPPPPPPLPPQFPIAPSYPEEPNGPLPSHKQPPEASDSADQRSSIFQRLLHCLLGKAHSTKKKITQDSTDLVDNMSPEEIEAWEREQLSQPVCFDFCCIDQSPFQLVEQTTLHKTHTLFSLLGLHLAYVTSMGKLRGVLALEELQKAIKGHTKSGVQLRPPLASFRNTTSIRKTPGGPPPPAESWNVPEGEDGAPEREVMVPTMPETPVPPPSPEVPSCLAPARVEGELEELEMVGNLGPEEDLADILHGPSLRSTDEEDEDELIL
# Excerpt: Table 2: Inhibition of CIC-1 ion channel using compounds of the invention
# human CIC-1 channels = target: T2, human CIC-1 channels (Homo sapiens, UniProt P35523); test: Automated patch-clamp on human CIC-1 expressed in CHO cells; assay type: cell-based; conditions: difference in half activation voltage, compound added intracellularly vs control cell patches; positive shift = CIC-1 inhibition
# T2 construct: host or cells: CHO cells constitutively expressing human ClC-1
# Method: The investigatory goal of these experiments was to evaluate how compounds affect the open probability and current amplitude of human CIC-1 channels expressed in CHO cells. Experiments were performed using an automated patch clamp system that allowed high throughput testing of whole cell patches together with both intracellular and extracellular addition of compound.
# Automated whole cell patch clamp experiments were performed with the Qpatch 16 system (Sophion Bioscience, Ballerup, Denmark) at room temperature. Data acquisition and analysis were performed in the Qassay software (ver. 5.6, Odense).
# To evoke CIC-1 currents in whole cell patches, the membrane potential was initially stepped from a holding potential of -30 mV to +60 mV for 100 ms and then to various test voltages (sweeps) ranging from +120 mV to -140 mV in steps of 20 mV for 300 ms. To obtain tail currents, the membrane potential was stepped to -100 mV after each test voltage for 300 ms and then relaxed to -30 mV for 2 sec between sweeps (Figure 3). I/V relationships for whole cell instant and steady state current amplitudes were obtained by plotting average current densities at the beginning and at the end of the 300 ms step against the membrane potential (Figure 4).
# In order to determine the relative overall open probability (P0), the instantaneous tail currents were normalized to the maximal tail current obtained following the most positive voltage step and plotted against the test voltage. Plots of normalized tail currents from each whole cell patch were then fitted to a Boltzmann function allowing determination of half activation voltages (V1/2, Figure 5).
# For automated patch clamp experiments extracellular solutions contained: 2 mM CaCl2, 1 mM MgCl2, 10 mM HEPES, 4 mM KCI, 145 mM NaCl, 10 mM Glucose, pH adjusted to 7.4 with NaOH (2 M). Osmolality adjusted to -320 using sucrose.
# Intracellular solutions contained: 80 mM CsF, 60 mM CsCI, 5/1 mM KOH/EGTA, 10 mM HEPES, 10 mM NaCl, pH adjusted to 7.2 with NaOH (2 M). Osmolality adjusted to -320 mOsm using sucrose.
# Cells used in patch clamp experiments were Chinese hamster ovary cells (CHO) constitutively expressing human CIC-1 channels. The amino acid sequence encoded by the cDNA used to create this cell line was identical to the translated sequence for GenBank accession number NM_000083.2. Cells were produced by Charles River (Catalogue CT6175, Cleveland OH, USA) in a cryopreserved format. Experiments were performed on the cells directly after thawing (3 × 10^6 cells used in each experiment).
# To evaluate the compound effect on CIC-1, when applied directly to the intracellular side of the cell membrane, the half activation voltage, V1/2, was determined from whole cell patches with compound added to the intracellular solution and then compared to V1/2 determined from control cell patches with only vehicle added to the intracellular solution. Additionally, the effect of extracellular added compound was evaluated by determine V1/2 and steady state current amplitudes before and after exchanging the extracellular solution to contain compound.
# The difference in half activation voltage of CIC-1 channels, ΔV1/2, was determined as the difference between the cell patches treated intracellularly with compound and control cells patches and is reported in Table 4 below. A positive shift in ΔV1/2 is reflecting CIC-1 channel inhibition by the tested compound. P-values of <0.05 is considered significant. […]
# T2 sequence (P35523 whole entry): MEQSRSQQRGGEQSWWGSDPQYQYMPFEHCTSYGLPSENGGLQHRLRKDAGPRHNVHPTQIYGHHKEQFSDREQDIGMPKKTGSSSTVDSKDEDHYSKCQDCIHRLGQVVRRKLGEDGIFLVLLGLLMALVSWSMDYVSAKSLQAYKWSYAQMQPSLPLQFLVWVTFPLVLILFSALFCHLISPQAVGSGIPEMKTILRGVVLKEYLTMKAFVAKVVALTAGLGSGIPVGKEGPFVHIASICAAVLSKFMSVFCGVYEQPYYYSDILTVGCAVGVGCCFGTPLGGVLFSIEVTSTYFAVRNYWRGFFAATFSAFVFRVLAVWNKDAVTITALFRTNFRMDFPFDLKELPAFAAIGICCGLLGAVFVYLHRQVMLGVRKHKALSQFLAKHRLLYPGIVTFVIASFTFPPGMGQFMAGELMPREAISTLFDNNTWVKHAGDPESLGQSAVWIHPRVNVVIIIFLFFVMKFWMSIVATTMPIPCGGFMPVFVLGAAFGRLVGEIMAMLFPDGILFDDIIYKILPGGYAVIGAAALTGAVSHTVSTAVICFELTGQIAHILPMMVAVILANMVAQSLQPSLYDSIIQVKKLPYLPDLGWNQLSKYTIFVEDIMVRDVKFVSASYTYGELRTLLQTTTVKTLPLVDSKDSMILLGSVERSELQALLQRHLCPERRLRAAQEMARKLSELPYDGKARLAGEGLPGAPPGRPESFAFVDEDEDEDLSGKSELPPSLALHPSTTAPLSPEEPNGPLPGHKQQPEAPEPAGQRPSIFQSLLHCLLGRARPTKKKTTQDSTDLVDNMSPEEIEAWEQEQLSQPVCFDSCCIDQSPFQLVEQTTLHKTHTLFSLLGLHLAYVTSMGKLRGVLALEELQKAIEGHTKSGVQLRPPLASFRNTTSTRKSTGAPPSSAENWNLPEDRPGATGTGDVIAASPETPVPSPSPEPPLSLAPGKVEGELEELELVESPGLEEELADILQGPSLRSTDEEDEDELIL
EC50 (CIC-1 channels),ΔV1/2 (human CIC-1 channels),SMILES,average increase in twitch peaks (female Lewis rats; 20 mg/kg i.v.),average increase in tetanic force (female Lewis rats; 20 mg/kg i.v.),restore force to muscles in vivo (female Lewis rats),activation at 50 µM (soleus muscles),average increase in twitch peaks (female Lewis rats; 21 mg/kg i.v.),average increase in tetanic force (female Lewis rats; 21 mg/kg i.v.)
7.2 ± 2.8 µM,–,"C[C@H](Oc1ccc(Br)cc1F)C(=O)O [Compound A-31, (2S)-2-(4-bromo-2-fluorophenoxy)propanoi c acid]",7.3%,29.8%,can restore force,42%,–,–
12 ± 3.2 µM,–,"C[C@@H](F)[C@H](Oc1ccc(Br)cc1)C(=O)O [Compound A-94, (2R,3R)-2-(4-bromophenoxy)-3-fluorobutanoic acid]",–,–,can restore force,31%,11.5%,34.8%
7.2 µM,27.4 mV,"C#CC[C@H](Oc1ccc(Br)cc1Br)C(=O)O [Compound A-66, (2S)-2-(2,4-dibromophenoxy)pent-4-ynoic acid]",–,–,–,51%,–,–
4 ± 0.1 µM,10.4 mV,"COC[C@H](Oc1ccc(Br)cc1Br)C(=O)O [Compound A-74, (2S)-2-(2,4-dibromophenoxy)-3-methoxypropanoic acid]",–,–,–,42%,–,–
